Measurements published in US11845726B2.
“And” between values parts separate entries of the source, which are not always exact repeats. Identical values can stand only once. “Also recorded” adds a separate entry of the source.

Assays:
5-HT2A receptor [1] = target: 5-HT2A receptor (Homo sapiens, UniProt P28223); assay: [3H]ketanserin competition binding assay (SPA); conditions: for 5-HT2A competition binding: control ligands, [3H]ketanserin competition
5-HT1A receptor = target: T1, 5-HT1A receptor (Homo sapiens, UniProt P08908); assay: cAMP-Glo assay of 5-HT1A receptor modulation in +5-HT1A and -5-HT1A CHO-K1 cells; assay type: cell-based; conditions: for cAMP levels / 5-HT1A receptor modulation: forskolin-stimulated +5-HT1A vs -5-HT1A cells
T1 construct: host or cells: CHO-K1 co-expressing Ga15
T1 sequence (P08908 1-422): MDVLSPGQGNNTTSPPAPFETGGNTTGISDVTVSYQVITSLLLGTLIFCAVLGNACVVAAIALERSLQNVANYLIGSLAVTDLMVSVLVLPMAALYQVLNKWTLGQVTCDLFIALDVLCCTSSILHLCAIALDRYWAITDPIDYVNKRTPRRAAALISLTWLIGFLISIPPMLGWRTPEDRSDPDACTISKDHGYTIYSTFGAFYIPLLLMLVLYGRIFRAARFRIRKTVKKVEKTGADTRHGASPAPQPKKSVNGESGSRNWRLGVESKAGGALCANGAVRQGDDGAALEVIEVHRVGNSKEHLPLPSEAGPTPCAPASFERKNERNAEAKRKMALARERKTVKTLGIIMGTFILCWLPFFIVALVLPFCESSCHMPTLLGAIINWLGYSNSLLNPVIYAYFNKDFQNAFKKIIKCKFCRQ

[2] = Mouse pharmacokinetic (PK) evaluation of drug metabolism to psilocin; conditions: for administered compound in plasma after oral dosing: any dose
[3] = Stability in enzyme-free control buffer; assay type: in vitro ADME; conditions: assay buffer without enzymes
Source text: (§1) A fundamental evaluation in drug development is the assessment of absorption, distribution, metabolism, excretion, and pharmacokinetics (ADME/PK) (Eddershaw et al., 2000, Drug Discovery Today 5(9): 409-414). […] Drug stability upon exposure to human liver microsomes and liver S9 cellular fractions is a common in vitro assay to approximate in vivo, liver-based drug metabolism (Richardson et al., 2016 Drug Metabolism Letters 10:83-90). First-pass metabolism is also often approximated in vitro using intestinal microsome and cellular S9 fractions (Hatley et al., 2017, Biopharmaceuticals & Drug Disposition, 38(2):155-160). […] Supernatants were analyzed for the presence of candidate prodrugs (parent molecule) and psilocin (the predicted metabolite) using Orbitrap LC-MS (Thermo Scientific) using previously described methods (Menéndez-Perdomo et al., 2021, J. Mass Spectrom., 56: e4683). […] Assay concentrations (μM) of both parent ‘prodrug’ molecule and psilocin metabolite, as quantified through LC-MS using routine standard curve procedures, were plotted as functions of assay time (minutes). The metabolism rate (T1/2) was determined from the metabolism curve plot using the one phase decay feature of GraphPad PRISM software (Version 9.2.0). The quantity of parent prodrug at time zero was set as 100%.

[4] = In vitro metabolic stability / psilocin release in AB serum; assay type: in vitro ADME, human
Source text: as §1, with “38(2):155-160). Further, it is well known that human serum, and particularly circulating serum esterases can contribute to systemic drug metabolism (Williams, F M 1987, Pharmacology and Therapeutics, 34:99-109). Many pharmacological agents are classified as prodrugs, as they undergo metabolic transformation in vivo upon administration to release the active drug compound into the systemic compartment (Zawilska J B, et al. 2013, Pharmacological Reports, 65:1-14). Psilocybin, a serotonergic psychedelic agent, is well known prodrug that is metabolized into the psychoactive product, psilocin (Dinis-Oliveira, R J 2017, Drug Metabolism Reviews, 49(1):84-91).” for “38(2):155-160).”, “100%. […]” for “100%.”

in vitro = in vitro ADME, human; conditions: for half-life: human
Source text: A fundamental evaluation in drug development is the assessment of absorption, distribution, metabolism, excretion, and pharmacokinetics (ADME/PK) (Eddershaw et al., 2000, Drug Discovery Today 5(9): 409-414). […] Drug stability upon exposure to human liver microsomes and liver S9 cellular fractions is a common in vitro assay to approximate in vivo, liver-based drug metabolism (Richardson et al., 2016 Drug Metabolism Letters 10:83-90). First-pass metabolism is also often approximated in vitro using intestinal microsome and cellular S9 fractions (Hatley et al., 2017, Biopharmaceuticals & Drug Disposition, 38(2):155-160). Further, it is well known that human serum, and particularly circulating serum esterases can contribute to systemic drug metabolism (Williams, F M 1987, Pharmacology and Therapeutics, 34:99-109). Many pharmacological agents are classified as prodrugs, as they undergo metabolic transformation in vivo upon administration to release the active drug compound into the systemic compartment (Zawilska J B, et al. 2013, Pharmacological Reports, 65:1-14). Psilocybin, a serotonergic psychedelic agent, is well known prodrug that is metabolized into the psychoactive product, psilocin (Dinis-Oliveira, R J 2017, Drug Metabolism Reviews, 49(1):84-91). To evaluate the capacity of test molecules to similarly serve as prodrugs of psilocin, time-dependent, metabolic stability assays using human AB serum, human intestinal microsomes (HIM), human intestinal S9 fractions (HIS9), human liver microsomes (HLM), human liver S9 fractions (HLS9), human alkaline phosphatase, and porcine esterase were performed. […] Liquid chromatography coupled mass spectrometry (LC-MS) was employed to track the conversion of the test molecules into psilocin. All intestinal and liver fractions and NADPH RapidStart reagent was purchased from Sekisui/XenoTech. Human AB serum was purchased from Sigma. For intestine and liver metabolism assays, 2.5 μM candidate compounds were incubated in 400 μg/ml of each cellular fraction (HLM, HLS9, HIM, or HIS9) in 50 mM potassium phosphate buffer (pH 7.4) containing 3 mM MgCl2 and 1 mM EDTA supplemented with NADPH RapidStart at 37° C. Samples were taken at the start of the assay, and at every 20 minutes for 2 hours. Time-point samples were precipitated with 1:1 volume of acetonitrile to quench the reaction before centrifugation at 4000×g for 20 minutes. Supernatants were analyzed for the presence of candidate prodrugs (parent molecule) and psilocin (the predicted metabolite) using Orbitrap LC-MS (Thermo Scientific) using previously described methods (Menéndez-Perdomo et al., 2021, J. Mass Spectrom., 56: e4683). The serum assays were carried out in 10% human AB serum in 50 mM potassium phosphate buffer (pH 7.4) containing 3 mM MgCl2 and 1 mM EDTA. Bovine alkaline phosphatase assays were carried out using one unit of purified enzyme in 50 mM potassium phosphate buffer (pH 7.4) containing 3 mM MgCl2 and 1 mM EDTA. Porcine esterase assays were carried out using one unit of purified enzyme in 50 mM potassium phosphate buffer (pH 7.4) containing 3 mM MgCl2 and 1 mM EDTA. Assay concentrations (μM) of both parent ‘prodrug’ molecule and psilocin metabolite, as quantified through LC-MS using routine standard curve procedures, were plotted as functions of assay time (minutes). The metabolism rate (T1/2) was determined from the metabolism curve plot using the one phase decay feature of GraphPad PRISM software (Version 9.2.0). The quantity of parent prodrug at time zero was set as 100%.
Positive controls were first tested to ensure that assays were functioning properly.

5-HT2A receptor [5] = target: T2, 5-HT2A receptor (Mus musculus, UniProt P35363); assay: Drug-induced Head Twitch Response (HTR); assay type: in vivo, mice; conditions: 1 mg/kg i.p., 15-to-30-minute window after administration
T2 construct: tissue Charles River; host or cells: living C57BL/6-Elite mice (neuronal receptor)
T2 sequence (P35363 whole entry): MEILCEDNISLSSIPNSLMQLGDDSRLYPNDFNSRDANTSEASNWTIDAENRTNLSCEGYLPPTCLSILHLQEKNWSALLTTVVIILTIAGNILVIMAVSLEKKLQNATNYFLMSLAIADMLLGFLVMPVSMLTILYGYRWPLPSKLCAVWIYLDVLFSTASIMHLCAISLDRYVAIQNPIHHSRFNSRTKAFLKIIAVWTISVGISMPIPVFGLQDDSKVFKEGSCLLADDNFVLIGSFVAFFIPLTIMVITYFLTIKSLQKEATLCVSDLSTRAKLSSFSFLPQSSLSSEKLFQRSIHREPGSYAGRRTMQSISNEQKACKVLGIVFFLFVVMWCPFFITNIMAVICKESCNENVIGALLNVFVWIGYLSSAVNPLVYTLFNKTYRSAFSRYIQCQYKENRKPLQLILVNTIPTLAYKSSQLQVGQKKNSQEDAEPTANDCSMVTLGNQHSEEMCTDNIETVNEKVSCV

HepG2 cells = assay: PrestoBlue cell viability assay; conditions: 48 hours
GABAA = assay type: cell-based
[6] = 1 mg/kg i.v., 0.25 h, Mean ± SD
[7] = 1 mg/kg i.v., 1 h, individual mice
[8] = 1 mg/kg i.v., 2 h, individual mice
[9] = 1 mg/kg i.v., 4 h, individual mice
[10] = 1 mg/kg i.v., 6 h, individual mice
[11] = 1 mg/kg i.v., 8 h, individual mice
[12] = 3 mg/kg oral, 24 h, individual mice

Sequence of 5-HT2A receptor (Homo sapiens, UniProt P28223) (P28223 whole entry): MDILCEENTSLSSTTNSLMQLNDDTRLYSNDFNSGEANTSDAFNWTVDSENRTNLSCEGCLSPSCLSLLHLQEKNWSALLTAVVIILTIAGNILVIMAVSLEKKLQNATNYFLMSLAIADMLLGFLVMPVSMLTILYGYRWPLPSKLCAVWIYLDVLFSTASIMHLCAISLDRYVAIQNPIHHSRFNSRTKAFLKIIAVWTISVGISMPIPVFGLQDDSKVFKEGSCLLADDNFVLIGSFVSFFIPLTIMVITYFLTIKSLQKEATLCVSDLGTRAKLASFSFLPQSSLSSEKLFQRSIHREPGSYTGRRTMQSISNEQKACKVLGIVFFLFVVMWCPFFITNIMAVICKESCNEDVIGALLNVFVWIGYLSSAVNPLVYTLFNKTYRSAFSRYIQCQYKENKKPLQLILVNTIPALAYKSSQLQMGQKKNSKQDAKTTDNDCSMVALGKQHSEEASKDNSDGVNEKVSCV

SMILES | 5-HT2A competition binding (5-HT2A receptor [1]) | cAMP levels / 5-HT1A receptor modulation (5-HT1A receptor) | administered compound in plasma after i.v. dosing ([2]; 1 mg/kg i.v.) | Plasma concentration of the administered compound itself ([2]; 1 mg/kg i.v., 5 min, Mean ± SD) [ng/mL] | Plasma concentration of the administered compound itself [2, 6] [ng/mL] | Plasma concentration of the administered compound itself ([2]; 1 mg/kg i.v., 0.5 h, Mean ± SD) | Plasma concentration of the administered compound itself ([2]; 1 mg/kg i.v., 1 h, Mean ± SD) | Plasma concentration of the administered compound itself [2, 7] | Plasma concentration of the administered compound itself [2, 8] | Plasma concentration of the administered compound itself [2, 9] | Plasma concentration of the administered compound itself [2, 10] | Plasma concentration of the administered compound itself [2, 11] | Plasma concentration of psilocin [2, 12] | administered compound in plasma after oral dosing [2] | stability / conversion to psilocin [4] | stability / conversion to psilocin (in vitro; HLM) | stability / conversion to psilocin (in vitro; HLS9) | Head Twitch Response (5-HT2A receptor [5]) | Ki (5-HT2A receptor [1]) [nM] | CD50 (cytotoxicity) (HepG2 cells) [µM] | other results
N[C@@H](Cc1c[nH]c2ccccc12)C(=O)O [tryptophan] | no binding | no reduction in cellular cAMP levels | – | – | – | – | – | – | – | – | – | – | – | – | – | – | – | – | – | – | –
CN(C)CCc1c[nH]c2cccc(OP(=O)(O)O)c12 [psilocybin] | – | – | only detectable in i.v. administered animals | 144 ± 167 | 13.2 ± 12.5 | 4.28 (n = 2) ng/mL | 1.21 (n = 1) ng/mL | No Peak (2×) and 1.21 ng/mL | No Peak | No Peak | No Peak | No Peak (2×) and 2.54 ng/mL | BLQ | not detectable in orally administered animals at any dose | stable in serum with no conversion to psilocin | stable in liver fractions with no conversion to psilocin | stable in liver fractions with no conversion to psilocin | – | – | – | Plasma concentration of the administered compound itself ([2]; 1 mg/kg i.v., 5 min, individual mice): 19.7 ng/mL and 76.8 ng/mL and 334 ng/mL; Plasma concentration of the administered compound itself ([2]; 1 mg/kg i.v., 0.25 h, individual mice): 3.32 ng/mL and 8.95 ng/mL and 27.2 ng/mL; Plasma concentration of the administered compound itself ([2]; 1 mg/kg i.v., 0.5 h, individual mice): No Peak and 2.35 ng/mL and 6.21 ng/mL; Plasma concentration of psilocin ([2]; 1.56 mg/kg oral, 24 h, individual mice): BLQ; stability [3]: stability of psilocybin was confirmed in assay buffer
CN(C)CCc1c[nH]c2cccc(O)c12 [psilocin] | binding | reduction in cAMP levels | – | – | – | – | – | – | – | – | – | – | – | – | – | – | – | – | – | – | –
NCCc1c[nH]c2ccc(O)cc12 [serotonin] | – | reduction in cAMP levels | – | – | – | – | – | – | – | – | – | – | – | – | – | – | – | – | – | – | –
CN(C)CCc1c[nH]c2cccc(OC(=O)SCc3ccccc3)c12 [E(VI)] | – | mild receptor modulation at higher ligand concentrations | detectable levels of E(VI) | 24.4 ± 30.2 | 63.3 ± 51.7 | 7.81 ± 6.17 ng/mL | 4.49 (n = 2) ng/mL | 3.14 ng/mL and No Peak | 0.776 ng/mL and No Peak | BLQ (2×) and No Peak | No Peak (2×) and BLQ | No Peak | No Peak (2×) and BLQ | did not yield any detectable levels of E(VI); also recorded: never detected at any timepoint | quickly converted to psilocin; also recorded: nearly completely disappears upon in vitro exposure to AB serum | quickly converted to psilocin | quickly converted to psilocin | Elevated incidences of HTR; also recorded: elevated response was observed in mice treated with E(VI) compared to B(II) | 130 | 74.5 | Plasma concentration of the administered compound itself ([2]; 1 mg/kg i.v., 2 h, Mean ± SD): 0.685 (n = 2) ng/mL; AUC0-tlast of the administered compound ([2]; 1 mg/kg i.v., Mean ± SD): 19.7 ± 15.9 ng·h/mL; AUC0-tlast/Dose of the administered compound ([2]; 1 mg/kg i.v., Mean ± SD): 19.7 ± 15.9 kg·ng·h/mL/mg; AUC0-tlast/Dose of the administered compound ([2]; 1 mg/kg i.v., individual mice): 20.4 kg·ng·h/mL/mg and 35.2 kg·ng·h/mL/mg and 3.40 kg·ng·h/mL/mg; administered compound in plasma ([2]; 1 mg/kg oral): neither B(II) nor E(VI) were detected in plasma; Plasma concentration of psilocin ([2]; 1 mg/kg oral, 8 h, individual mice): BLQ; Plasma concentration of psilocin ([2]; 1 mg/kg oral, 24 h, individual mice): No Peak; Plasma concentration of psilocin ([2]; 10 mg/kg oral, 24 h, individual mice): BLQ; IC50 (GABAA; blocker (BL)): 32200 nM; EC50 (GABAA; opener (OP)): > 100000 nM
CN(C)CCc1c[nH]c2cccc(OC(=O)OCc3ccccc3)c12 [B(II)] | – | – | – | – | – | – | – | – | – | – | – | – | – | – | failed completely to dissociate | did not readily dissociate to psilocin | did not readily dissociate to psilocin | elicit head twitching | 277 | 65.9 | time administered compound resides in plasma post-dosing ([2]; 10 mg/kg oral): up to 4 hours; EC50 at 5-HT1A (5-HT1A receptor; forskolin-stimulated +5-HT1A cells): neither molecule engaged 5-HT1A with sufficient potency to calculate an EC50 value; half-life (in vitro; microsomes, pH 7.4): 3.63 h; half-life (in vitro; s9, pH 7.4): 8.95 h
